# Laboratory results as given in patent US20220047687A1, “CHEMICAL SCALPEL” (FUNDACIÓN INSTITUTO DE INVESTIGACIÓN SANITARIA FUNDACIÓN …, priority 2019, published 2022).
# “Also recorded” adds a separate entry of the source.
# Tests used:
# [1] = test system: peritoneal carcinomatosis (DHD cells); test: Survival and necropsy of rats with carcinomatosis after peritoneal washing (groups D, E, F); format: in vivo, rat; conditions: for Observations (necropsy): group E, Mito 5 mg; for outcome of group E: mitomycin 5 mg/animal, large amount of analgesia
# Procedure: (§1) The procedure was performed 2 times in the TCQ group, the first time with collagenase and after 2 minutes peritoneal washing with mitomycin C at the different concentrations to be tested was repeated. […] Blood was also collected from all the animals before sacrificing them, the blood was processed within the hour following its extraction to obtain plasma and to analyze, on one hand, the existence of the mutated KRAS oncogene (mutation in codon 12 of exon 1 expressed by DHD cells), and on the other hand the existence of collagenase traces or residues in blood after the peritoneal washes. A digital PCR was used for the KRAS oncogene localization study. For the collagenase trace study, the anonymized samples were sent to Lyposmol laboratories for the performance of specific anti-MMP-1 and anti-MMP-2 ELISAS.
# Each group initially consisted of 6 rats (2×3).
# [2] = test system: abdominal organs and peritoneum; test: Survival and necropsy of healthy rats after peritoneal washing (groups A, B)
# Source text: During this phase, a series of survival experiments were established with various work groups and subgroups to learn about the co-adjuvant or enhancing role of collagenase in the treatment of peritoneal tumors with chemotherapeutic agents such as mitomycin C:
# Each group initially consisted of 6 rats (2×3). In the initial design, 3 animals were sacrificed after 15 days and the rest were left until the conditions of the animals required them to be sacrificed (subcutaneous tumor growth >0.5 cm in diameter) or a maximum of 2 months.
# mutated KRAS oncogene = test: Digital PCR of KRAS in plasma; format: in vivo, rat; conditions: for Mutated KRAS event no.: plasma
# Procedure: as §1
# To analyze the presence of mutated KRAS in the blood of the different groups by means of digital PCR, DNA was extracted from at least 2 ml of plasma/group by means of the QlAamp Circulating Nucleic Acid kit according to the manufacturer's data and the results were those listed in Table 4.
smiles,measurement,setting,value
"CO[C@@]12[C@H](COC(N)=O)C3=C(C(=O)C(C)=C(N)C3=O)N1C[C@@H]1N[C@@H]12 [Mitomycin C, mitomycin C]",Observations (necropsy),"[1]; 1 week, 1 animal",Endpoint criterion
same,Observations (necropsy),"[1]; 2 weeks, 2 animals",Endpoint criterion
same,Observations (necropsy),"[1]; 72 h, 3 animals",Endpoint criterion
same,outcome of group E,[1],all the animals had to be sacrificed due to endpoint criterion
same,outcome of group E,[1]; listed as mitomycin,Half of the animals were found dead the first night after surgery
same,necropsies of group B1,[2]; 5 mg of mitomycin,"many irritated and bloody adhesions, and thin organ walls and vessels"
same,clinical condition,"[2]; group B, high dose 5 mg/animal",always lethargic and exhibit very little activity
same,survival time,"[2]; group B, high dose 5 mg/animal, despite continuous analgesia",≤ 2 weeks
same,Observations (necropsy),"[2]; group B-1, healthy rats, 5 mg, 1 week, 2 animals, listed as Mito",Significant weight loss. Viscera affected
same,Observations (necropsy),"[2]; group B-1, healthy rats, 5 mg, 1 week, 2 animals, listed as mitomycin","all the abdominal organs are in a relaxed and retracted state (with kidneys that appear necrotic and liver that appears collapsed), the omentum can be ruptured upon contact, and the large intestine obstructed"
same,Observations (necropsy),"[2]; group B-1, healthy rats, 5 mg, 5 days, 1 animal",intestinal puncture
same,Observations (necropsy),"[2]; group B-2, healthy rats, 0.1 mg, 1 week, 1 animal",Organs with thinning and bloody walls; also recorded: Many adhesions
same,Observations (necropsy),"[2]; group B-2, healthy rats, 0.1 mg, 2 months, 2 animals, listed as Mito","Greenish liquid in abdomen, peritonitis; also recorded: high degree of adhesions"
same,Observations (necropsy),"[2]; group B-2, healthy rats, 0.1 mg, 2 months, 2 animals, listed as mitomycin",the intestine and an omentum are hematic
same,Observations (necropsy),"[2]; group B-2, healthy rats, 0.1 mg, 24 h, 2 animals",Evisceration
same,"mutated KRAS in the plasma, assessment","mutated KRAS oncogene; group E (DHD + mitomycin C 5 mg/animal), only such group among the treatments",positive mutated KRAS in the plasma
same,Mutated KRAS event no.,"mutated KRAS oncogene; group B (healthy rats, mitomycin)",0
same,Mutated KRAS event no.,mutated KRAS oncogene; group E (DHD + Mito 5 mg/animal),524
